Reference: US6372779B1, “Anti-inflammatory compounds” (Ortho Pharmaceutical Corporation, priority 1997, dated 2002)
Entries after “also recorded” stand apart in the source; their conditions may differ.

Tests used:
[1] = system: oxazolone-induced ear swelling in CD-1 mice; assay: mouse oxazolone-induced contact hypersensitization (MOCH), ear swelling; format: in vivo; settings: for inhibition in vivo at 1 mg: topical to ear, mouse, 24 hours after oxazolone challenge, read-out: Oxazolone Ear Swelling (MOCH) % inhibition vs. Vehicle at 1 mg; for topical antiinflammatory activity in the oxazolone model (in words): mouse ear
Procedure: Several triphenylpropanamide compounds of this invention, having varying affinities for the human glucocorticoid receptor, were tested for topical antiinflammatory activity in mouse ear inflammation models. […] Compounds having receptor affinities closer to hydrocortisone were as nearly active as hydrocortisone in suppressing mouse oxazolone-induced contact hypersensitization (MOCH) and phorbol ester-induced ear edema. The in vivo studies of this example were conducted as follows.
In determining the MOCH using the compounds of this invention, albino male CD-1 mice, 7-9 weeks old were induced on the shaved abdomen with 50 μl of 3% oxazolone in acetone/corn oil (Day 0). On Day 5, a 20 μl volume of 2% oxazolone in acetone was applied to the dorsal left ear of the mouse. Compounds (made in ethanol/propylene glycol, 70:30) were applied to the left ear in 20 μl volume, one hour after oxazolone challenge. The right ear was not treated. The mice were sacrificed by carbon dioxide inhalation 24 hours after oxazolone challenge, the left and right ears were removed and a 7 mm biopsy was removed from each ear and weighed. The difference in biopsy weights between the right and left ears was calculated. Antiinflammatory effects of compounds were evident as an inhibition of the increase in ear weight.

`O=C(Cc1ccccc1Cl)NCC(c1ccccc1)C(c1ccccc1)c1ccccc1` (stereo not shown) [Compound 2] showed an inhibition in vivo at 1 mg [1] of 4% and a melting point of 140.5 to 141.2 °C.
`O=C(Cc1ccc(Cl)cc1)NCC(c1ccccc1)C(c1ccccc1)c1ccccc1` (stereo not shown) [Compound 3] showed a melting point of 168.4 to 170.9 °C.
Molecule `Cc1ccc(CC(=O)NCC(c2ccccc2)C(c2ccccc2)c2ccccc2)cc1` (stereo not shown) [Compound 4] has an inhibition in vivo at 1 mg [1] of 1% and a melting point of 142.3 to 143.6 °C.
`COc1ccc(CC(=O)NCC(c2ccccc2)C(c2ccccc2)c2ccccc2)cc1` (stereo not shown) [Compound 6] showed an inhibition in vivo at 1 mg [1] of 38% and a melting point of 157 to 159 °C.
For `COc1ccc(CC(=O)NCC(c2ccccc2)C(c2ccccc2)c2ccccc2)cc1OC` (stereo not shown) [Compound 7], the melting point was 123 to 124.5 °C.
Molecule `O=C(Cc1c(Cl)cccc1Cl)NCC(c1ccccc1)C(c1ccccc1)c1ccccc1` (stereo not shown) [Compound 8] has a melting point of 165.2 to 166.5 °C.
`O=C(Cc1ccc(Cl)c(Cl)c1)NCC(c1ccccc1)C(c1ccccc1)c1ccccc1` (stereo not shown) [Compound 9] showed an inhibition in vivo at 1 mg [1] of 18% and a melting point of 65 to 68 °C.
With `O=C(Cc1ccccc1C(F)(F)F)NCC(c1ccccc1)C(c1ccccc1)c1ccccc1` (stereo not shown) [Compound 10] the inhibition in vivo at 1 mg [1] was 19% and the melting point was 109 to 111.5 °C.
Molecule `O=C(Cc1cccc(C(F)(F)F)c1)NCC(c1ccccc1)C(c1ccccc1)c1ccccc1` (stereo not shown) [Compound 11] has an inhibition in vivo at 1 mg [1] of 33% and a melting point of 108.8 to 111.3 °C.
`O=C(Cc1ccc(C(F)(F)F)cc1)NCC(c1ccccc1)C(c1ccccc1)c1ccccc1` (stereo not shown) [Compound 12] showed an inhibition in vivo at 1 mg [1] of 36% and a melting point of 119.5 to 120.3 °C.
`O=C(NCC(c1ccccc1)C(c1ccccc1)c1ccccc1)C(c1ccccc1)c1ccccc1` (stereo not shown) [Compound 13] showed an inhibition in vivo at 1 mg [1] of 10% and a melting point of 178.7 to 179.8 °C.
Molecule `O=C(Cc1ccccc1)NCC(c1ccc(Cl)cc1)C(c1ccccc1)c1ccccc1` (stereo not shown) [Compound 14] has an inhibition in vivo at 1 mg [1] of 11% and a melting point of 151.5 to 152.7 °C.
In the case of `O=C(Cc1ccccc1)NCC(c1ccccc1)C(c1ccc(F)cc1)c1ccc(F)cc1` (stereo not shown) [Compound 15], the “topical antiinflammatory activity in the oxazolone model (in words)” value (from here on “topical antiinflammatory activity”) [1] is reported as “moderate topical activity”.
With `O=C(Cc1ccccc1Cl)NCC(c1ccccc1)C(c1ccc(F)cc1)c1ccc(F)cc1` (stereo not shown) [Compound 16] the inhibition in vivo at 1 mg [1] was 46%, the “topical antiinflammatory activity” value [1] was “moderate topical activity” and the melting point was 127.3 to 129.4 °C.
`O=C(CCc1ccccc1)NCC(c1ccccc1)C(c1ccccc1)c1ccccc1` (stereo not shown) [Compound 19] gave an inhibition in vivo at 1 mg [1] of 2% and a melting point of 107.4 to 109 °C.
Molecule `COc1ccccc1CCC(=O)NCC(c1ccccc1)C(c1ccccc1)c1ccccc1` (stereo not shown) [Compound 20] has an inhibition in vivo at 1 mg [1] of 32% and a melting point of 137 to 140 °C.
With `O=C(CCc1ccccc1Cl)NCC(c1ccccc1)C(c1ccccc1)c1ccccc1` (stereo not shown) [Compound 22] the inhibition in vivo at 1 mg [1] was 15% and the melting point was 135 to 135.8 °C.
With `COc1ccccc1CCC(=O)NCC(c1ccccc1)C(c1ccc(F)cc1)c1ccc(F)cc1` (stereo not shown) [Compound 23] the inhibition in vivo at 1 mg [1] was 41%, the “topical antiinflammatory activity” value [1] was “moderate topical activity” and the melting point was 78.9 to 80.9 °C.
For `O=C(CCCc1ccccc1)NCC(c1ccccc1)C(c1ccccc1)c1ccccc1` (stereo not shown) [Compound 24], the inhibition in vivo at 1 mg [1] was 21% and the melting point was 78.1 to 81 °C.
For `O=S(=O)(Cc1ccccc1)NCC(c1ccccc1)C(c1ccccc1)c1ccccc1` (stereo not shown) [Compound 25], the inhibition in vivo at 1 mg [1] was 9% and the melting point was 172.9 to 174.2 °C.
In the case of `Cc1ccc(S(=O)(=O)NCC(c2ccccc2)C(c2ccccc2)c2ccccc2)cc1` (stereo not shown) [Compound 26], the inhibition in vivo at 1 mg [1] is reported as -5% and the melting point is reported as 139.7 to 142.1 °C.
With `O=C(CS(=O)(=O)c1ccccc1)NCC(c1ccccc1)C(c1ccccc1)c1ccccc1` (stereo not shown) [Compound 27] the inhibition in vivo at 1 mg [1] was 20% and the melting point was 186.9 to 187.5 °C.
In the case of `Cc1ccc(S(=O)(=O)CC(=O)NCC(c2ccccc2)C(c2ccccc2)c2ccccc2)cc1` (stereo not shown) [Compound 28], the inhibition in vivo at 1 mg [1] is reported as 28% and the melting point is reported as 190.3 to 191.9 °C.
With `O=C(Cc1cccs1)NCC(c1ccccc1)C(c1ccccc1)c1ccccc1` (stereo not shown) [Compound 29, N-(2-thiophene)acetyl-2,3,3-triphenylpropylamine] the inhibition in vivo at 1 mg [1] was 83%, the “topical antiinflammatory activity” value [1] was “equiactive with hydrocortisone; also recorded: inhibited ear swelling in a dose-dependent manner” and the melting point was 130 to 132 °C.
`Cc1ccc(C(=O)NCC(c2ccccc2)C(c2ccccc2)c2ccccc2)s1` (stereo not shown) [Compound 30] showed an inhibition in vivo at 1 mg [1] of 21% and a melting point of 183.5 to 185 °C.
`O=C(Cc1cccs1)NCC(c1ccccc1)C(c1ccc(F)cc1)c1ccc(F)cc1` (stereo not shown) [Compound 31] showed an inhibition in vivo at 1 mg [1] of 14% and a melting point of 84.9 to 85.3 °C.
With `Cc1ccc(CC(=O)NCC(c2ccccc2)C(c2ccc(F)cc2)c2ccc(F)cc2)s1` (stereo not shown) [Compound 32] the inhibition in vivo at 1 mg [1] was 83%, the “topical antiinflammatory activity” value [1] was “equiactive with hydrocortisone; also recorded: inhibited ear swelling in a dose-dependent manner” and the melting point was 127.9 to 128.9 °C.
For `O=C(Cc1cccs1)NCC(c1ccc(I)cc1)C(c1ccccc1)c1ccccc1` (stereo not shown) [Compound 33], the inhibition in vivo at 1 mg [1] was 74% and the melting point was 127 to 130 °C.
In the case of `O=C(Cc1cccs1)NCC(c1ccc(Cl)cc1)C(c1ccccc1)c1ccccc1` (stereo not shown) [Compound 34], the inhibition in vivo at 1 mg [1] is reported as 29% and the melting point is reported as 126.3 to 127 °C.
Work on `O=C(Cc1ccsc1)NCC(c1ccc(Cl)cc1)C(c1ccccc1)c1ccccc1` (stereo not shown) [Compound 35] yielded an inhibition in vivo at 1 mg [1] of 36% and a melting point of 126.4 to 127.9 °C.
In the case of `O=C(Cc1ccsc1)NCC(c1ccccc1)C(c1ccccc1)c1ccccc1` (stereo not shown) [Compound 36], the inhibition in vivo at 1 mg [1] is reported as 13% and the melting point is reported as 135 to 138 °C.
`O=C(CCCc1cccs1)NCC(c1ccccc1)C(c1ccccc1)c1ccccc1` (stereo not shown) [Compound 37] gave an inhibition in vivo at 1 mg [1] of 25% and a melting point of 105.5 to 106.9 °C.
`O=C(C=Cc1cccs1)NCC(c1ccccc1)C(c1ccccc1)c1ccccc1` (stereo not shown) [Compound 38] gave an inhibition in vivo at 1 mg [1] of 13% and a melting point of 217.3 to 218.9 °C.
Work on `O=C(C=Cc1ccsc1)NCC(c1ccccc1)C(c1ccccc1)c1ccccc1` (stereo not shown) [Compound 39] yielded an inhibition in vivo at 1 mg [1] of 24% and a melting point of 204.8 to 206.5 °C.
`O=S(=O)(NCC(c1ccccc1)C(c1ccccc1)c1ccccc1)c1cccs1` (stereo not shown) [Compound 40] showed an inhibition in vivo at 1 mg [1] of 15% and a melting point of 169 to 170.9 °C.
In the case of `O=S(=O)(NCC(c1ccc(Cl)cc1)C(c1ccccc1)c1ccccc1)c1cccs1` (stereo not shown) [Compound 41], the inhibition in vivo at 1 mg [1] is reported as 3% and the melting point is reported as 180.4 to 181.9 °C.
Work on `O=C(NCC(c1ccccc1)C(c1ccccc1)c1ccccc1)c1ccsc1` (stereo not shown) [Compound 42] yielded an inhibition in vivo at 1 mg [1] of 27% and a melting point of 153.5 to 154.7 °C.
Molecule `O=C(NCC(c1ccccc1)C(c1ccccc1)c1ccccc1)c1cc2ccccc2s1` (stereo not shown) [Compound 43] has an inhibition in vivo at 1 mg [1] of 47% and a melting point of 218.3 to 218.8 °C.
Molecule `CN(CC(c1ccccc1)C(c1ccccc1)c1ccccc1)C(=O)Cc1cccs1` (stereo not shown) [Compound 44] has an inhibition in vivo at 1 mg [1] of 3% and a melting point of 107 to 109.3 °C.
With `O=C(NCC(c1ccccc1)C(c1ccccc1)c1ccccc1)c1cccs1` (stereo not shown) [Compound 45] the inhibition in vivo at 1 mg [1] was 31% and the melting point was 139 to 142 °C.
`O=C(Cc1c[nH]c2ccccc12)NCC(c1ccccc1)C(c1ccccc1)c1ccccc1` (stereo not shown) [Compound 47] gave an inhibition in vivo at 1 mg [1] of 51% and a melting point of 89 to 93 °C.
Molecule `O=C(CCc1c[nH]c2ccccc12)NCC(c1ccccc1)C(c1ccccc1)c1ccccc1` (stereo not shown) [Compound 48] has an inhibition in vivo at 1 mg [1] of 22% and a melting point of 100 to 114 °C.
`O=C(Cc1ccccn1)NCC(c1ccccc1)C(c1ccccc1)c1ccccc1` (stereo not shown) [Compound 49] showed an inhibition in vivo at 1 mg [1] of 20% and a melting point of 120.1 to 121.7 °C.
`O=C(NCC(c1ccccc1)C(c1ccccc1)c1ccccc1)Nc1ccccc1Cl` (stereo not shown) [Compound 52] showed a melting point of 210 to 211 °C.
Molecule `O=C(NCC(c1ccccc1)C(c1ccccc1)c1ccccc1)Nc1ccccc1F` (stereo not shown) [Compound 53] has an inhibition in vivo at 1 mg [1] of 24% and a melting point of 190 to 191 °C.
For `O=C(NCc1ccccc1)NCC(c1ccccc1)C(c1ccccc1)c1ccccc1` (stereo not shown) [Compound 54], the inhibition in vivo at 1 mg [1] was 10% and the melting point was 170 to 171 °C.
In the case of `O=C(NCc1ccc(Cl)cc1Cl)NCC(c1ccccc1)C(c1ccccc1)c1ccccc1` (stereo not shown) [Compound 55], the inhibition in vivo at 1 mg [1] is reported as 18% and the melting point is reported as 166 to 167 °C.
With `O=C(NCC(c1ccccc1)C(c1ccccc1)c1ccccc1)Oc1ccc2ccccc2c1` (stereo not shown) [Compound 59] the melting point was 151 to 152 °C.
With `O=C(Cc1cccs1)NCC(c1ccccc1)C1c2ccccc2-c2ccccc21` (stereo not shown) [Compound 71] the melting point was 128.7 to 130.5 °C.
In the case of `O=C(Cc1ccccc1)NCC(c1ccccc1)C1c2ccccc2CCc2ccccc21` (stereo not shown) [Compound 73], the melting point is reported as 172.7 to 174.6 °C.
Work on `O=C(Cc1ccccc1)NCC1(c2ccccc2)CC1(c1ccccc1)c1ccccc1` (stereo not shown) [Compound 78] yielded a melting point of 150 to 152 °C.
In the case of `CC(C)(C)C(=O)NCC1(c2ccccc2)CC1(c1ccccc1)c1ccccc1` (stereo not shown) [Compound 86], the melting point is reported as 121 to 122 °C.
In the case of `O=C(Cc1ccc(Cl)cc1)NCC(c1ccc2c(c1)OCO2)C(c1ccccc1)c1ccccc1` (stereo not shown) [Compound 98], the “topical antiinflammatory activity” value [1] is reported as “equiactive with hydrocortisone”.
In the case of `C[C@]12CCC(=O)C=C1CC[C@@H]1[C@@H]2[C@@H](O)C[C@@]2(C)[C@H]1CC[C@]2(O)C(=O)CO` [hydrocortisone, reference compound], the inhibition in vivo at 1 mg [1] is reported as 75 to 85%.
